Each structure is given as a SMILES string.

The target in the experiment is T1, human full-length recombinant PKC βII (Homo sapiens, UniProt P05771).
T1 construct: Active human full-length recombinant PKC βII; purchased Invitrogen GmbH, Darmstadt, Germany
T1 sequence (P05771 1-673 isoform P05771-2): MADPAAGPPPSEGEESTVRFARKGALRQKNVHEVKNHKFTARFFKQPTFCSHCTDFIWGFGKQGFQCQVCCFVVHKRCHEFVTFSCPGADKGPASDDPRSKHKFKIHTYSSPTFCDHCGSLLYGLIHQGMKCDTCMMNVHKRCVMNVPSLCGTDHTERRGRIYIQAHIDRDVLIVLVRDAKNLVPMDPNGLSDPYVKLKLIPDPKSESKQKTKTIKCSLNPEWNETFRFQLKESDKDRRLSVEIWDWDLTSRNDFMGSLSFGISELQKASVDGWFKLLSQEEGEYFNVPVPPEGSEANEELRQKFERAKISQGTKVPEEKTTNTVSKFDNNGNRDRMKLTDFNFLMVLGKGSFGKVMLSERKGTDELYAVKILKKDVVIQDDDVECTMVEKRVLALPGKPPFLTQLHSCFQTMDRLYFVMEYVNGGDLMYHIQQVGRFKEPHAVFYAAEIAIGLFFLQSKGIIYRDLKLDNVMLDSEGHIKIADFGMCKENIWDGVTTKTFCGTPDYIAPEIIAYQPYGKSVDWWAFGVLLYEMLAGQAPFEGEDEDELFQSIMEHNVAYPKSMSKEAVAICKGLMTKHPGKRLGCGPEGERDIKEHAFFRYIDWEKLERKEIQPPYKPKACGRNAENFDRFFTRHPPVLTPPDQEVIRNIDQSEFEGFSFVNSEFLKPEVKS
The experiment can be described thus: Determination of PKC βII inhibition (Caliper mobility-shift kinase assay, phosphorylation of fluorescein peptide substrate). The note with it: final compound concentration 1.14 µM (±0.15 µM); 60 min incubation at 32 °C. The format is biochemical. The protocol: Determination of PKC βII inhibition
PKC βII inhibition was determined according to the following protocol:
Active human full-length recombinant PKC βII and the peptide substrate, Fluorescein-RFARKGSLRQKNV, were purchased from Invitrogen GmbH, Darmstadt, Germany. Adenosine-5'-triphosphate (ATP), bovine serum albumine (BSA), dimethylsulphoxide (DMSO), 4-(2-hydroxyethyl)piperazine-1-ethanesulfonic acid (Hepes), Triton X-100, 1,2-Dioleoyl-sn-glycerol (DAG), L-α-Phosphatidyl-L-serine (PS), calcium chloride (CaCl2), and Pluronic F-68 were purchased from Sigma-Aldrich, Munich, Germany. Magnesium chloride, 1 M sodium hydroxide solution, 1M hydrochloric acid solution and EDTA were obtained from Merck Biosciences, Darmstadt, Germany.
Test compounds were diluted to three times the test concentration in buffer 1 (30 mM Hepes-NaOH, pH 7.4, 0.01 % Pluronic F-68 and 3 % (v/v) DMSO). The PKC βII enzyme was diluted to a concentration of 30 ng/ml in buffer 2 (30 mM Hepes-NaOH, pH 7.4, 15 mM MgCl2,150 µM CaCl2, 150 µg/ml PS, 60 µg/ml DAG, and 0.045 % (w/v) Triton X-100). The peptide substrate and ATP were diluted to concentrations of 3 µM and 120 µM, respectively, in buffer 2. Two µl of the compound solution were mixed with 2 µl of the diluted enzyme in a 384-well small volume microtiter plate (Greiner, Bio-One, Frickenhausen, Germany), and the kinase reaction was initiated by addition of 2 µl of the solution containing peptide substrate and ATP. After 60 min incubation at 32 °C, the reaction was stopped by addition of 20 µl of a solution containing 130 mM Hepes-NaOH, pH 7.4, 0.0195 % (v/v) Brij-35, 6.5 mM EDTA, 0.13 % chip coating reagent 3 (Caliper Lifescience Inc, Hopkinton, MA) and 6.5 % (v/v) DMSO. Phosphorylation of the substrate peptide was then detected on a Caliper 3000 instrument essentially as described by Pommereau et al (J. Biomol. Screening 2004, 9(5), 409-416). Separation conditions were as follows: Pressure -0.8 psi, upstream voltage - 3000 V, downstream voltage -800 V. Positive controls (buffer 1 instead of compound) and negative controls (buffer 1 instead of compound and buffer 2 instead of kinase solution) were run in parallel on each plate. Fractional turnover (R) was determined as the height of the peak of the phosphorylated peptide product divided by the sum of the unphosphorylated substrate and phosphorylated product peak heights. Percent-inhibition values for the test compounds were determined using the formula % Inhibition = 100*(1-(Rcompound-Rnegative control)/(Rpositive control-Rnegative control). [formula]
In the following table % inhibition values observed with example compounds at a final concentration of 1.14 µM (±0.15 µM) are listed: […]
With `CN(C)c1cccc(/C=C/c2n[nH]c3nc(-c4ccc(O)cc4)cc(C(=O)N4CCNCC4)c23)c1` [Example 23, [3-[(E)-2-(3-Dimethylamino-phenyl)-vinyl]-6-(4-hydroxy-phenyl)-1H-pyra-zolo[3,4-b]pyri-din-4-yl]-pipe-razin-1-yl-methanone], the inhibition at 1.14 µM stood at 99%.
With `CS(=O)(=O)c1ccc(/C=C/c2n[nH]c3nc(-c4ccc(O)cc4)cc(C(=O)N4CCNCC4)c23)cc1` [Example 24, {6-(4-hydroxy-phenyl)-3-[(E)-2-(4-methanesulfonyl-phenyl)-vinyl]-1H-pyra-zolo[3,4-b]pyri-din-4-yl}-pipe-razin-1-yl-methanone], the inhibition at 1.14 µM amounted to 99%.
On to `N#Cc1cccc(/C=C/c2n[nH]c3nc(-c4ccc(O)cc4)cc(C(=O)N4CCNCC4)c23)c1` [Example 25, 3-{(E)-2-[6-(4-Hydroxy-phenyl)-4-(piperazine-1-carbonyl)-1H-pyrazolo[3,4-b]pyridin-3-yl]-vinyl}-benzonitrile], for which the inhibition at 1.14 µM was found to be 99%.
For the compound `O=C(c1cc(-c2ccc(O)cc2)nc2[nH]nc(/C=C/c3cccc(N4CCCCC4)c3)c12)N1CCNCC1` [Example 26, {6-(4-Hydroxy-phenyl)-3-[(E)-2-(3-piperidin-1-yl-phenyl)-vinyl]-1H-pyrazolo[3,4-b]pyridin-4-yl}-piperazin-1-yl-methanone], the inhibition at 1.14 µM worked out at 96%.
In the case of `O=C(c1cc(-c2ccc(O)cc2)nc2[nH]nc(/C=C/c3cccc(N4CCOCC4)c3)c12)N1CCNCC1` [Example 27, {6-(4-Hydroxy-phenyl)-3-[(E)-2-(3-morpholin-4-yl-phenyl)-vinyl]-1H-pyrazolo[3,4-b]pyridin-4-yl}-piperazin-1-yl-methanone], the inhibition at 1.14 µM turned out to be 98%.
As for `O=C(c1cc(-c2ccc(O)cc2)nc2[nH]nc(/C=C/c3cccc(N4CCCC4)c3)c12)N1CCNCC1` [Example 28, {6-(4-Hydroxy-phenyl)-3-[(E)-2-(3-pyrrolidin-1-yl-phenyl)-vinyl]-1H-pyrazolo[3,4-b]pyridin-4-yl}-piperazin-1-yl-methanone], the figure is 94%; as for `Cc1cc(/C=C/c2n[nH]c3nc(-c4ccc(O)cc4)cc(C(=O)N4CCNCC4)c23)ccc1C#N` [Example 29, 4-{(E)-2-[6-(4-Hydroxy-phenyl)-4-(piperazine-1-carbonyl)-1H-pyrazolo[3,4-b]pyridin-3-yl]-vinyl}-2-methyl-benzonitrile], 96%.
Take `O=C(c1cc(-c2ccc(O)cc2)nc2[nH]nc(/C=C/c3cc(Cl)cc(N4CCCCC4)c3)c12)N1CCNCC1` [Example 30, [3-[(E)-2-(3-Chloro-5-pipe-ridin-1-yl-phe-nyl)-vinyl]-6-(4-hydroxy-phenyl)-1H-pyrazolo[3,4-b]pyridin-4-yl]-piperazin-1-yl-methanone]: the inhibition at 1.14 µM was 90%.
For `CN(C)C(=O)c1cccc(/C=C/c2n[nH]c3nc(-c4ccc(O)cc4)cc(C(=O)N4CCNCC4)c23)c1` [Example 31, 3-{(E)-2-[6-(4-Hydroxy-phenyl)-4-(piperazine-1-carbonyl)-1H-py-razolo[3,4-b]py-ridin-3-yl]-vinyl}-N,N-dimethyl-benzamide], the inhibition at 1.14 µM worked out at 99%.
In the case of `CN1Cc2cc(/C=C/c3n[nH]c4nc(-c5ccc(O)cc5)cc(C(=O)N5CCNCC5)c34)ccc2C1=O` [Example 32, 5-{(E)-2-[6-(4-Hydroxy-phenyl)-4-(piperazine-1-carbonyl)-1H-py-razolo[3,4-b]pyri-din-3-yl]-vinyl}-2-methyl-2,3-di-hydro-isoindol-1-one], the inhibition at 1.14 µM worked out at 99%.
In the case of `O=C(c1cc(-c2ccc(O)cc2)nc2[nH]nc(/C=C/c3cccc4c3NCC4)c12)N1CCNCC1` [Example 33, [3-[(E)-2-(2,3-Dihydro-1H-indol-7-yl)-vinyl]-6-(4-hydroxyphenyl)-1H-pyrazolo[3,4-b]-pyridin-4-yl]-piperazin-1-yl-methanone], the inhibition at 1.14 µM turned out to be 99%.
The same measure for `CN(C)C(=O)c1cccc(/C=C/c2n[nH]c3nc(-c4ccc(O)cc4)cc(C(=O)N4CCNCC4(C)C)c23)c1` [Example 34, 3-{(E)-2-[4-(2,2-Dimethyl-piperazine-1-carbonyl)-6-(4-hydroxy-phenyl)-1H-pyrazolo[3,4-b]pyridin-3-yl]-vinyl}-N,N-dimethyl-benzamide]: 98%.
The same measure for `CN1Cc2ccc(/C=C/c3n[nH]c4nc(-c5ccc(O)cc5)cc(C(=O)N5CCNCC5)c34)cc2C1=O` [Example 35, 6-{(E)-2-[6-(4-Hydroxy-phenyl)-4-(piperazine-1-carbonyl)-1H-pyrazolo[3,4-b]pyridin-3-yl]-vinyl}-2-methyl-2,3-dihydro-isoindol-1-one]: 98%; for `O=C(c1cc(-c2ccc(O)cc2)nc2[nH]nc(CCC3CCCCC3)c12)N1CCNCC1` [Example 36, [3-(2-cyclohexyl-ethyl)-6-(4-hydroxy-phenyl)-1H-pyrazolo[3,4-b]pyridin-4-yl]-piperazin-1-yl-methanone]: 81%; for `O=C(c1cc(-c2ccc(O)cc2)nc2[nH]nc(/C=C/c3ccc(F)cc3)c12)N1CCNCC1` [Example 37, [3-[(E)-2-(4-Fluoro-phenyl)-vinyl]-6-(4-hydroxy-phenyl)-1H-pyrazolo[3,4-b]pyridin-4-yl]-piperazin-1-yl-methanone]: 97%.
Consider `Cc1cccc(/C=C/c2n[nH]c3nc(-c4ccc(O)cc4)cc(C(=O)N4CCNCC4)c23)c1` [Example 38, [6-(4-Hydroxy-phenyl)-3-((E)-2-m-tolyl-vinyl)-1H-pyrazolo[3,4-b]pyridin-4-yl]-piperazin-1-yl-methanone], for which the inhibition at 1.14 µM was found to be 98%.
The same measure for `O=C(c1cc(-c2ccc(O)cc2)nc2[nH]nc(/C=C/c3ccc(Cl)cc3Cl)c12)N1CCNCC1` [Example 39, [3-[(E)-2-(2,4-Dichloro-phenyl)-vinyl]-6-(4-hydroxy-phenyl)-1H-pyrazolo[3,4-b]pyridin-4-yl]-piperazin-1-yl-methanone]: 39%; for `Cc1cc(C)cc(/C=C/c2n[nH]c3nc(-c4ccc(O)cc4)cc(C(=O)N4CCNCC4)c23)c1` [Example 40, [3-[(E)-2-(3,5-Dimethylphenyl)-vinyl]-6-(4-hydroxy-phenyl)-1H-pyrazolo[3,4-b]pyridin-4-yl]-piperazin-1-yl-methanone]: 99%; for `O=C(c1cc(-c2ccc(O)cc2)nc2[nH]nc(/C=C/c3ccc(OC(F)F)cc3)c12)N1CCNCC1` [Example 41, [3-[(E)-2-(4-Difluoromethoxy-phenyl)-vinyl]-6-(4-hydroxy-phenyl)-1H-pyrazolo[3,4-b]pyridin-4-yl]-piperazin-1-yl-methanone]: 97%.
Turning to `O=C(c1cc(-c2ccc(O)cc2)nc2[nH]nc(/C=C/c3ccc(C(F)(F)F)cc3)c12)N1CCNCC1` [Example 42, {6-(4-Hydroxy-phenyl)-3-[(E)-2-(4-trifluoromethylphenyl)-vinyl]-1 H-pyrazolo[3,4-b]pyridin-4-yl}-piperazin-1-yl-methanone], the inhibition at 1.14 µM was found to be 66%.
For `COc1ccc(/C=C/c2n[nH]c3nc(-c4ccc(O)cc4)cc(C(=O)N4CCNCC4)c23)c(OC)c1` [Example 43, [3-[(E)-2-(2,4-Dimethoxyphenyl)-vinyl]-6-(4-hydroxy-phenyl)-1H-pyrazolo[3,4-b]pyridin-4-yl]-piperazin-1-yl-methanone], the inhibition at 1.14 µM was found to be 87%.
Regarding `O=C(c1cc(-c2ccc(O)cc2)nc2[nH]nc(/C=C/c3ccc(Oc4ccccc4)cc3)c12)N1CCNCC1` [Example 44, {6-(4-hydroxy-phenyl)-3-[(E)-2-(4-phenoxy-phenyl)-vinyl]-1H-pyrazolo[3,4-b]pyridin-4-yl}-piperazin-1-yl-methanone], the inhibition at 1.14 µM stood at 97%.
Regarding `O=C(c1cc(-c2ccc(O)cc2)nc2[nH]nc(/C=C/c3ccc(Cl)c(Cl)c3)c12)N1CCNCC1` [Example 45, [3-[(E)-2-(3,4-Dichloro-phenyl)-vinyl]-6-(4-hydroxy-phenyl)-1H-pyrazolo[3,4-b]pyridin-4-yl]-piperazin-1-yl-methanone], the inhibition at 1.14 µM amounted to 61%.

A word on the inhibition: it is the change of the read-out against control, counted positive when it falls.

The values above are taken from patent publication EP2567959B1, “6-(4-HYDROXY-PHENYL)-3-STYRYL-1H-PYRAZOLO[3,4-B]PYRIDINE-4-CARBOXYLIC ACID AMIDE DERIVATIVES AS KINASE INHIBITORS” (SANOFI, priority 2011, dated 2013).
